Experiment [1] deals with T1, NaDC1 (Homo sapiens, UniProt Q13183).
T1 sequence (Q13183 1-592): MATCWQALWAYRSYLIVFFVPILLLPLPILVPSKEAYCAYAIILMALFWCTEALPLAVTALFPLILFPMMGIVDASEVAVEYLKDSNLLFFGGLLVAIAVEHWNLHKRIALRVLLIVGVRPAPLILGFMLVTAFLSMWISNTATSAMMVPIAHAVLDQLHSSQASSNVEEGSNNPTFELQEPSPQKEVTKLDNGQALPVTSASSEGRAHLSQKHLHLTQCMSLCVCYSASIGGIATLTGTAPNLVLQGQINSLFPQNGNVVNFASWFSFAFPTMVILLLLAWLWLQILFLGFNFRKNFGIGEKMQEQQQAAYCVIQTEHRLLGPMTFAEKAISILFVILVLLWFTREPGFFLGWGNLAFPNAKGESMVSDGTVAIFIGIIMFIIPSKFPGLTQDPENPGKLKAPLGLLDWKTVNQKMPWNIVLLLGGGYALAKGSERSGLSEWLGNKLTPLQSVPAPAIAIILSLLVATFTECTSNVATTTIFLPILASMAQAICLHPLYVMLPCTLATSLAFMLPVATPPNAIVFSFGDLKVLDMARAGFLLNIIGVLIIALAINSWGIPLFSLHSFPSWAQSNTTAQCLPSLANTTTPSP
As to the kind of experiment: CD thermal melting at […] nm. Type of experiment: binding. More on the design: gene SLC13A2; full length, homodimer; N-terminal FLAG purified from HEK293F (structures, natural variant I550V); GFP and FLAG tagged in HEK293T for currents. As to conditions: absolute Tm in presence of citrate, not a shift; whether WT carries I550V not stated.

The target in experiment [2] is T2, NaDC1 (Homo sapiens, UniProt Q13183, T142A).
T2 construct: gene SLC13A2; full length, homodimer; N-terminal FLAG purified from HEK293F (structures, natural variant I550V); GFP and FLAG tagged in HEK293T for currents
T2 sequence (Q13183 1-592 T142A): T1 sequence (Q13183 1-592) with T142A
The experiment can be described thus: CD thermal melting at […] nm. The class given is binding. The note with it: absolute Tm in presence of citrate, not a shift.

Experiment [3] deals with T3, NaDC1 (Homo sapiens, UniProt Q13183, N476A).
T3 construct: gene SLC13A2; full length, homodimer; N-terminal FLAG purified from HEK293F (structures, natural variant I550V); GFP and FLAG tagged in HEK293T for currents
T3 sequence (Q13183 1-592 N476A): T1 sequence (Q13183 1-592) with N476A
The experiment can be described thus: CD thermal melting at […] nm. Type of experiment: binding. The note with it: absolute Tm in presence of citrate, not a shift.

The target in experiment [4] is T1, NaDC1. The experiment can be described thus: whole-cell patch clamp, transfected HEK293T. The note with it: gradient of citrate concentrations; 140 mM NaCl bath, pH 7.4. The class given is cell-based. More on the design: gene SLC13A2; full length, homodimer; GFP and FLAG tagged in HEK293T for currents. (In patch-clamp work, channel activity is measured electrically.)

Residue numbers refer to the chain shown, from its start.

As for `O=C(O)CC(O)(CC(=O)O)C(=O)O` [citrate], the Tm on NaDC1 [1] came out at 62.9 ± 0.3 °C; on NaDC1 [2], 56.4 ± 0.3 °C; on NaDC1 [3] it was 60.5 ± 0.7 °C. At NaDC1 [4], the “whole-cell patch clamp, transfected HEK293T” value is on record as “wild-type (WT) NaDC1 is indeed capable of transporting citrate”.

(Values after article PMC10980263, “Cryo-EM structures of the human NaS1 and NaDC1 transporters revealed the elevator transport and allosteric regulation mechanism” (Science Advances, 2024).)
